From US20180185347A1, “TETRAHYDROCYCLOPENTA[B]INDOLE COMPOUNDS AND PHOSPHODIESTERASE INHIBITORS FOR THE TREATMENT OF THE SIGNS AND SYMPTOMS OF BHP” (Transition Therapeutics (Ireland 2) Limited, priority 2016, published 2018)
Entries after “also recorded” stand apart in the source; their conditions may differ.

Legend:
[1] = target: T1, serum hormone binding globulin (Homo sapiens, UniProt P04278); test: Affinity to serum hormone binding globulin; conditions: at 10 μM
T1 sequence (P04278 30-402): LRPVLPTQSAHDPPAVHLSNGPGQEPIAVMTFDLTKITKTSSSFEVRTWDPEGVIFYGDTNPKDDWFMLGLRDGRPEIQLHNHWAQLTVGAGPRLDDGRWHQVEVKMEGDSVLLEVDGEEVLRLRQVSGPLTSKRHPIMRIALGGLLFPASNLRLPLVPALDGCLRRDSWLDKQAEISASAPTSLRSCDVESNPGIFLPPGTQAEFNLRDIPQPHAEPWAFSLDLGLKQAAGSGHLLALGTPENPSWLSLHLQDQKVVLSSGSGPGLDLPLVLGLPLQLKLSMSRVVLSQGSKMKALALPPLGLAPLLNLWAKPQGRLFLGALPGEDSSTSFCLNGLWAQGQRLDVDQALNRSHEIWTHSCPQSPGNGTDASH

[2] = test system: PSA levels; test: PSA in healthy subjects (Study GPBC, Phase 1); type: in vivo, human
Description: The results of this study are illustrated in FIG. 6.

[3] = test system: rats; test: Rat toxicology program: prostate weight and atrophy; type: in vivo; design: key: “”: no effect observed
[4] = target: T2, 17-beta-Hydroxysteroid Dehydrogenase Type 2 (Homo sapiens, UniProt P37059); test: Metabolism by 17-beta-HSD type 2; type: in vitro ADME
T2 sequence (P37059 1-387): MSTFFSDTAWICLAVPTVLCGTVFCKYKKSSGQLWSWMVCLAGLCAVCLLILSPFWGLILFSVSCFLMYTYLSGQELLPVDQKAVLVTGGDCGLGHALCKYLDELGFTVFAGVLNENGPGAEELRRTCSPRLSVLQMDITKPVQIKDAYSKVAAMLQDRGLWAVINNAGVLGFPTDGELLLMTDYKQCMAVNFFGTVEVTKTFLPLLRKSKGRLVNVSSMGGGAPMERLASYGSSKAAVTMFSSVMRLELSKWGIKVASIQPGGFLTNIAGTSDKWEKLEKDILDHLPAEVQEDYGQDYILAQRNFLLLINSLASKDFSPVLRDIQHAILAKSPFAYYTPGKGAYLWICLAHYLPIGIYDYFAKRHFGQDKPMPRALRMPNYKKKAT

[5] = Clinical body composition and muscle power; type: in vivo, human
Description: The Phase 2 Study for ED also included exploratory measures for lower extremity muscle strength and power, LBM and fat mass. […] The results are illustrated in FIGS. 12, 13, and 14.

[6] = test system: orchidectomized rats; test: Prostate and seminal vesicle weight in delayed ORX rat model (SV/Prostate risk); conditions: for prostate or seminal vesical weights: delayed ORX rats, 2 or 8 weeks, doses up to 20-30 mg/kg
Description: Orchidectomized (ORX) and sham-operated Wistar male rats were used (orchidectomized at 8 weeks of age and allowed to waste for 4 weeks). […] Rats were randomized and placed into treatment groups (n=6) based on body weight. Route of administration for all groups except testosterone enanthate (TE was given sub-cutaneously) was oral. At the end of 2 weeks of daily rats were euthanized, weighed & tissue harvested. Levator ani, prostates, and seminal vesicles were collected from each animal. Results are plotted as means±SE.

[7] = test system: PSA levels; conditions: healthy volunteers, any time point or dose, data of WO 2016040234; cited from earlier work
[8] = Dog bioavailability; type: in vivo
[9] = test system: LnCAP cells; test: LnCAP gene expression; type: cell-based; conditions: Homo sapiens, read-out: LnCAP Gene Expression EC50 (nM) AR
[10] = QT / ECG assessment in clinical studies; type: in vivo, human; conditions: Study GPEC
[11] = test system: PSA levels; test: PSA in ED patients failing tadalafil (Study GPEC); type: in vivo, human; conditions: for PSA levels: ED patients, alone or with tadalafil, PSA about 2.0 ng/ml or more
Description: The results of this study are illustrated in FIG. 7. […] (see FIG. 8 and FIG. 9).

[12] = test system: orchidectomized rats; test: Levator ani / bulbocavernous muscle weight in delayed ORX rat model; type: in vivo
Description: Results are plotted as means±SE.
Following the androgen deficiency in the ORX model, the Levator ani- and bulbocavernous muscle weights decreased in size.

[13] = Study GPEC, 12 weeks, 5 mg + 5 mg tadalafil compared with 10 mg tadalafil

## CC(C)OC(=O)N[C@H]1Cc2c(n(Cc3ccccn3)c3ccc(C#N)cc23)C1 [compound of Formula II, (S)-(7-cyano-4-pyridin-2-ylmethyl-1,2,3,4-tetrahydro-cyclopenta[b]indol-2-yl)-carbamic acid isopropyl ester]
[1]
  affinity to serum hormone binding globulin: none detected
[2]; Study GPBC, healthy subjects, 1 mg to 75 mg daily for 28 days
  PSA test, effect on the prostate: neutral to negative effect (decreasing PSA)
[2]; clinical studies, any dose level (up to 75 mg doses)
  PSA: No increases in PSA were observed
[3]; 1+ months, 15 mg/kg/day
  Prostate weight (mean % decrease): “”
[3]; 1+ months, 150 mg/kg/day
  Prostate weight (mean % decrease): “”
[3]; 1+ months, 1500 mg/kg/day
  Prostate weight (mean % decrease): “”
[3]; 6+ months, 15 mg/kg/day
  Prostate weight (mean % decrease): “”
[3]; 6+ months, 150 mg/kg/day
  Prostate weight (mean % decrease): ^↓30%
[3]; 6+ months, 1500 mg/kg/day
  Prostate weight (mean % decrease): ^↓34%
[3]; Male Fertility (3 months), 3 mg/kg/day
  Prostate weight (mean % decrease): “”
[3]; Male Fertility (3 months), 30 mg/kg/day
  Prostate weight (mean % decrease): ^↓23%
[3]; Male Fertility (3 months), 1000 mg/kg/day
  Prostate weight (mean % decrease): ^↓39%
[4]
  metabolism by 17-beta-Hydroxysteroid Dehydrogenase Type 2 class of enzymes: not metabolized
[5]; Study GPBC, healthy subjects, 28 days
  LBM and calf area (by CT): clinically and statistically significant increases
[5]; [13]
  fat body mass and LBM: reduction of fat body mass and an increase (improvement) of LBM
  lower extremity muscle power (stair climb): increased (improved)
[5]; clinical studies in patients with androgen deficiency
  lean body mass: clinically and statistically significant increases
[6]; 30 mg/kg, the highest dose examined
  changes in the prostate of orchidectomized rats: did not induce changes
[6]
  prostate or seminal vesical weights: had no effect; also recorded: minimal accrual SV/Prostate risk
[6]; listed as TT701
  prostate or seminal vesical weights: minimal accrual SV/Prostate risk
[7]
  PSA levels, change from baseline vs placebo: no significant changes from baseline
[8]; in vivo, read-out: Dog F %
  bioavailability: 58%
[8]; listed as TT701
  Dog F %: 58%
[9]
  EC50: 1.64 nM
[10]
  ECG data: did not show evidence of clinically meaningful changes
[11]; listed as OPK88004
  PSA levels: significant reduction in PSA levels
[11]; listed as OPK-88004
  PSA levels: decrease in PSA levels
[11]; Study GPEC, 1 mg and 5 mg for 12 weeks
  PSA: not associated with increases in PSA
[12]; Rattus norvegicus, read-out: ED50 for the levator ani muscle
  ED50: 1 to 3 mg/kg
[12]; delayed ORX rat, 8 weeks, 1 to 3 mg/kg/day
  Levator ani- and bulbocavernous muscle weights: increased significantly
